Results on three molecules are retold here after PubChem BioAssay AID1918940 (Molecular Pharmacology Branch, DTP, NCI, 2023).

“And” between values parts separate entries of the source, which are not always exact repeats. Equal entries are not always repeated.

As a reminder, the IC50 is the point on the concentration scale where inhibition reaches its midpoint. In general, viability, T/C refers to the result in the treated group divided by that in the control group, in per cent.

The assay relates to NCI-H211 complex spheroid viability. The assay is described as follows: Anticancer human tumor NCI-H211 cell line growth inhibition [LSD1].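 On all read-outs here: luminescent viability read after seven days of drug exposure.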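 On viability, T/C: 100% = DMSO vehicle control viability.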 To be noted: for viability, T/C: stronger effect = lower value. In outline: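 Complex spheroids of tumor cells with HUVEC and human MSCs, exposed to iadademstat combined with other agents. Each agent tested in half-log steps from near clinical Cmax (else 10 microM top), DMSO ≤0.25%.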

As for `CCN(c1cc(-c2ccc(CN3CCOCC3)cc2)cc(C(=O)NCc2c(C)cc(C)[nH]c2=O)c1C)C1CCOCC1` + NC1CC1c1ccc(-c2cccc(O)c2)cc1, the half-inhibitory concentration (IC50) was 205 nM (curve of first compound, second compound 0.1 µM); 69.4 nM (curve of first compound, second compound 0.316 µM); 114 nM (curve of first compound, second compound 1 µM); 127 nM (curve of first compound, second compound 3.16 µM); 139 nM (curve of first compound, second compound 10 µM). Further, the viability, T/C runs as follows: (second compound 0.1 µM, first compound 0.00949 µM) 74.4%; (second compound 0.1 µM, first compound 0.03 µM) 62.2%; (second compound 0.1 µM, first compound 0.0949 µM) 61.3%; (second compound 0.1 µM, first compound 0.3 µM) 43.7%; (second compound 0.1 µM, first compound 0.949 µM) 41%; (second compound 0.1 µM, first compound 3 µM) 40.9%. In addition, the viability, T/C by setting is: (second compound 0.316 µM, first compound 0.00949 µM) 84%; (second compound 0.316 µM, first compound 0.03 µM) 67.3%; (second compound 0.316 µM, first compound 0.0949 µM) 42.7%; (second compound 0.316 µM, first compound 0.3 µM) 48.8%; (second compound 0.316 µM, first compound 0.949 µM) 46.5%; (second compound 0.316 µM, first compound 3 µM) 36.3%. Also, the viability, T/C was 83.4% (second compound 1 µM, first compound 0.00949 µM); 48.5% (second compound 1 µM, first compound 0.03 µM); 65.8% (second compound 1 µM, first compound 0.0949 µM); 38.1% (second compound 1 µM, first compound 0.3 µM); 38.4% (second compound 1 µM, first compound 0.949 µM); 30.3% (second compound 1 µM, first compound 3 µM). The viability, T/C by setting is: (second compound 3.16 µM, first compound 0.00949 µM) 79.3%; (second compound 3.16 µM, first compound 0.03 µM) 58.7%; (second compound 3.16 µM, first compound 0.0949 µM) 50.5%; (second compound 3.16 µM, first compound 0.3 µM) 46.3%; (second compound 3.16 µM, first compound 0.949 µM) 38.8%; (second compound 3.16 µM, first compound 3 µM) 27.4%. In addition, the viability, T/C (second compound 10 µM, first compound 0.00949 µM) is 70.3%; the viability, T/C (second compound 10 µM, first compound 0.03 µM) is 58.6%; the viability, T/C (second compound 10 µM, first compound 0.0949 µM) is 46.6%; the viability, T/C (second compound 10 µM, first compound 0.3 µM) was 51.7%; the viability, T/C (second compound 10 µM, first compound 0.949 µM) was 40.8%; the viability, T/C (second compound 10 µM, first compound 3 µM) was 32.1%.
`CC(C)CC(NC(=O)C(Cc1ccccc1)NC(=O)c1cnccn1)B(O)O` (centres undefined): the viability, T/C was 109% and 100% (compound 0.000316 µM); 96.9% and 86.8% (compound 0.001 µM); 25.4% and 29.6% (compound 0.00316 µM); 6.26% and 1.54% (compound 0.01 µM); 0.16% and 0.2% (compound 0.0316 µM); 0.16% and 0.32% (compound 0.1 µM). The IC50 (curve of compound) is 2.13 nM and 2.1 nM.
With `O=C(C=Cc1cccc(S(=O)(=O)Nc2ccccc2)c1)NO`, the viability, T/C runs as follows: (compound 0.00949 µM) 28.4% and 18.3%; (compound 0.03 µM) 3.38% and 8.21%; (compound 0.0949 µM) 2.69% and 7.91%; (compound 0.3 µM) 2.15% and 6.02%; (compound 0.949 µM) 0.94% and 1.35%; (compound 3 µM) 0.17% and 0.22%. Besides, the IC50 (curve of compound) was less than 9.49 nM.
